This data set is described as follows: photoluminescence quantum yield (fraction); solvent given as SMILES.

SMILES strings stand for the structures.

As for `CCCCCc1ccc(-c2ccc(C#Cc3cc(C#Cc4ccc(-c5ccc(CCCCC)cc5)cc4)c4ccc5c(C(=O)c6ccccc6)cc(C#Cc6ccc(-c7ccc(CCCCC)cc7)cc6)c6ccc3c4c65)cc2)cc1`, the photoluminescence quantum yield (in ClCCl) was found to be 0.51.

`C(=C\c1ccc(-c2nc3c4cccnc4c4ncccc4c3[nH]2)cc1)/c1ccncc1`: the photoluminescence quantum yield runs as follows: (in C1CCOC1) 0.54; (in CC#N) 0.32; (in CO) 0.19; (in ClCCl) 0.48.

Molecule `Oc1ccccc1-c1nc(-c2ccccc2)c(-c2ccccc2)[nH]1` yielded a photoluminescence quantum yield (in CO) of 0.25.

In the case of `CC1(C)c2ccccc2N(c2ccc3c(c2)C(C)(C)c2cc(N4c5ccccc5C(C)(C)c5ccccc54)ccc2S3(=O)=O)c2ccccc21`, the photoluminescence quantum yield (in O=P(c1ccccc1)(c1ccccc1)c1ccccc1Oc1ccccc1P(=O)(c1ccccc1)c1ccccc1) amounted to 0.8.

In the case of `O=[N+]([O-])c1ccc([N+]2=Cc3ccc4c5c(ccc4c3O[B-]2(c2c(F)c(F)c(F)c(F)c2F)c2c(F)c(F)c(F)c(F)c2F)C=[N+](c2ccc([N+](=O)[O-])cc2)[B-](c2c(F)c(F)c(F)c(F)c2F)(c2c(F)c(F)c(F)c(F)c2F)O5)cc1`, the photoluminescence quantum yield was determined as 0.83 (in Cc1ccccc1) and 0.66 (in ClCCl).

`c12c3c4c5c1c1c6c7c2c2c8c3c3c9c4c4c%10c5c5c1c1c6c6c%11c%12c%13c%14c%15c%16c%17c%14c%14c%18c%13c%11c1c1c5c%10c5c(c%14c%10c%17c%11c%13c%16c%14c%16c%15c%12c%12c%16c(c2c7c%126)c2c8c3c(c%13c%142)c2c9c4c5c%10c%112)c%181` had a photoluminescence quantum yield (in CC1CCCCC1) of 0.0006.

On to `Cc1sc(Cl)cc1-c1nc(-c2ccccc2)[nH]c1-c1cc(Cl)sc1C`, for which, under “in CC#N”, the photoluminescence quantum yield amounted to 0.017.

As for `c1ccc2c(-c3ccc4sc5ccccc5c4c3)c3ccccc3cc2c1`, the photoluminescence quantum yield is, setting by setting: (in C1CCCCC1) 0.52; (in CC#N) 0.43; (in ClCCl) 0.7.

Consider `CC(C)CCCC(C)CCN1C(=O)c2ccc3c(-c4ccccc4)c4c5ccc6c7c(ccc(c(-c8ccccc8)c4c4ccc(c2c34)C1=O)c75)C(=O)N(CCC(C)CCCC(C)C)C6=O` (centres undefined), for which the photoluminescence quantum yield (in ClCCl) was 0.13.

Regarding `c1ccc2nc3cccc(-c4ccc(-n5c6ccccc6c6ccccc65)cc4)c3cc2c1`, the photoluminescence quantum yield by setting is: (in CC#N) 0.325; (in CCCCCC) 0.0319; (in CCOCC) 0.102; (in ClCCl) 0.253.

Turning to `COc1ccc(C2=Cc3ccccc3P2(=O)c2ccccc2)cc1` (centres undefined), the photoluminescence quantum yield was determined as 0.41 (in C1CCOC1) and 0.82 (in ClCCl).

For `COc1ccc2c3cccc4c(OC)ccc(c5cccc1c52)c43`, the photoluminescence quantum yield (in C1CCOC1) amounted to 0.88; the photoluminescence quantum yield (in Cc1ccccc1) stood at 0.76; the photoluminescence quantum yield (in ClC(Cl)(Cl)Cl) amounted to 0.05; the photoluminescence quantum yield (in ClC(Cl)Cl) came to 0.82; the photoluminescence quantum yield (in ClCCl) worked out at 0.94; the photoluminescence quantum yield (in c1ccncc1) is 0.9.

In the case of `Cc1ccc(C2=C3C=CC(Cl)=[N+]3[B-](F)(F)n3c(Cl)ccc32)cc1`, the photoluminescence quantum yield is, setting by setting: (in C1CCCCC1) 0.33; (in C1CCOC1) 0.3; (in CC#N) 0.29; (in CCOC(C)=O) 0.32; (in CO) 0.27; (in Cc1ccccc1) 0.59. Also, under “in ClC(Cl)Cl”, the photoluminescence quantum yield came out at 0.63.

`c1ccc(-c2ccc(-c3ccccc3)s2)cc1` had a photoluminescence quantum yield (in C1CCOC1) of 0.07.

Regarding `CCCCC1(CCCC)c2cc(C#Cc3ccc(C=C4c5ccccc5C=Cc5ccccc54)cc3)ccc2-c2ccc(C#Cc3ccc(C=C4c5ccccc5C=Cc5ccccc54)cc3)cc21`, the photoluminescence quantum yield (in C1CCOC1) is 0.00084.

Regarding `O=CC1=C(c2ccc(-c3cccs3)s2)CCC1`, the photoluminescence quantum yield (in CCO) is 0.02.

For the molecule `c1ccc(C2=C(c3ccccc3)c3cccc4c5c(cc(c34)O2)=NC2CCCCC2N=5)cc1` (centres undefined), the photoluminescence quantum yield (in ClCCl) worked out at 0.52.

`CC(C)c1ccc(/C=C/c2nc3ccc(N(C)C)cc3s2)cc1` gave a photoluminescence quantum yield (in C1CCCCC1) of 0.51 and a photoluminescence quantum yield (in CC#N) of 0.54.

`F[B-]1(F)n2c(nc3c4ccccc4c4ccccc4c32)-c2cccc[n+]21`: the photoluminescence quantum yield runs as follows: (in CC#N) 0.08; (in CCCCCC) 0.95; (in CO) 0.14; (in ClC(Cl)Cl) 0.3; (in ClCCl) 0.32.

Under “in C1CCCCC1”, `CCCCc1cc2cccc[n+]2[b-]2c(-c3cccc4[b-]3[n+]3ccccc3cc4CCCC)cccc21` gave a photoluminescence quantum yield of 0.03.

Regarding `CC1=N/C(=C\c2ccc(C#N)c(N(C)C)c2)C(=O)N1C`, the photoluminescence quantum yield (in C1CCOC1) was 0.07, the photoluminescence quantum yield (in CC#N) was 0.02 and the photoluminescence quantum yield (in CCCCCC) was 0.41.

Turning to `c1ccc(N(c2ccccc2)c2ccc(-c3cncs3)cc2)cc1`, where the note is “in CO”, the photoluminescence quantum yield was 0.53.

`Cc1cccc(C2=CC3=C(c4c(C)cc(C)cc4C)c4cc(-c5cccc(C)c5)c(-c5cccc(C)c5)n4[B-](F)(F)[N+]3=C2c2cccc(C)c2)c1` showed a photoluminescence quantum yield (in C1CCCCC1) of 0.41; a photoluminescence quantum yield (in C1CCOC1) of 0.33; a photoluminescence quantum yield (in CC#N) of 0.24; a photoluminescence quantum yield (in Cc1ccccc1) of 0.44; a photoluminescence quantum yield (in ClCCl) of 0.3.

With `COc1ccc(N(c2ccccc2)c2ccc3ccc4c(N(c5ccccc5)c5ccc(OC)cc5)ccc5ccc2c3c54)cc1`, the photoluminescence quantum yield (in ClCCl) was 0.46.

Regarding `CC1(C)c2ccccc2N(c2ccc(-c3nc(-c4ccccn4)n(-c4ccccc4)n3)cc2)c2ccccc21`, the photoluminescence quantum yield (in ClCCl) worked out at 0.0612.

For `C(=C\c1cccc(/C=C/c2c3ccccc3cc3ccccc23)c1)/c1ccncc1`, for the setting “in C1CCOC1”, the photoluminescence quantum yield is 0.6.

On to `CCCCCCCCCCOc1ccc(C#Cc2ccc(C#Cc3ccc(OCCCCCCCCCC)c(OCCCCCCCCCC)c3)c3nc4c5ccccc5c5ccccc5c4nc23)cc1OCCCCCCCCCC`, for which the photoluminescence quantum yield is, setting by setting: (in C1CCOC1) 0.23; (in Cc1ccccc1) 0.24; (in ClCCl) 0.22.

`Fc1c(-n2c3ccccc3c3ccccc32)c(-c2nnc(-c3ccccc3)o2)c(-n2c3ccccc3c3ccccc32)c(-n2c3ccccc3c3ccccc32)c1-n1c2ccccc2c2ccccc21` registered a photoluminescence quantum yield (in Cc1ccccc1) of 0.1.

Turning to `CCOc1cc2c(cc1/C=C/C1=CC(=C(C#N)C#N)CC(C)(C)C1)c1ccccc1n2CC`, the photoluminescence quantum yield by setting is: (in C1CCOC1) 0.021; (in CC#N) 0.018; (in CCO) 0.025; (in CCOC(C)=O) 0.026; (in CN(C)C=O) 0.035; (in CS(C)=O) 0.05. The photoluminescence quantum yield (in Cc1ccccc1) is 0.008, the photoluminescence quantum yield (in ClC(Cl)Cl) stood at 0.017 and the photoluminescence quantum yield (in ClCCl) came out at 0.028.

On to `CC(C)[Si](C#Cc1c2nsnc2c(C#C[Si](C(C)C)(C(C)C)C(C)C)c2nc3c(ccc4ccccc43)nc12)(C(C)C)C(C)C`, for which the photoluminescence quantum yield (in CCCCCC) came out at 0.42.

In turn, `C=CC1CN2CCC1CC2[C@H](O)c1ccnc2ccc(OC)cc12` (some centres undefined) returned a photoluminescence quantum yield (in O) of 0.546.

With `COc1ccc(C2=[N+]3C(=Nc4c(-c5cc(OC)c(OC)c(OC)c5)cc(-c5ccc(OC)cc5)n4[B-]3(F)F)C(c3cc(OC)c(OC)c(OC)c3)=C2)cc1`, the photoluminescence quantum yield (in Cc1ccccc1) turned out to be 0.24.

Under “in CC#N”, `COC(=O)C12N=N[C@](C(=O)OC)(C3C4C=CC(C4)C31)[C@@H]1C[C@H]12` (some centres undefined) had a photoluminescence quantum yield of 0.034.

In turn, `c1csc(-c2ccc(-c3cccs3)c3nsnc23)c1` yielded a photoluminescence quantum yield (in ClC(Cl)Cl) of 0.59.

As to `COc1ccc(C(=Cc2ccc(/C=C/c3ccc(C#N)cc3)cc2)c2ccc(OC)cc2)cc1`, the photoluminescence quantum yield (in C1CCOC1) amounted to 0.03.

Take `COc1ccc(-c2cnc3cccc(-c4ccccc4)n23)cc1`: the photoluminescence quantum yield (in ClCCl) was determined as 0.26.

As to `COC(=O)[C@@H]1C(=O)Oc2ccccc2[C@H]1c1c[nH]c2ccccc12`, under “in CS(C)=O”, the photoluminescence quantum yield was determined as 0.0094.

As to `CC(C)Nc1cc2c(cc1F)c(=O)c1cc(F)c(NC(C)C)cc1n2C`, where the note is “in CCO”, the photoluminescence quantum yield is 0.31.

For the setting “in CC#N”, `Cc1ccc(-c2ccc(/C=C/c3cccs3)cn2)nc1` registered a photoluminescence quantum yield of 0.042.

For `C(=C\c1cccnc1)/c1ccc(Nc2ccccc2)cc1`, the photoluminescence quantum yield runs as follows: (in CC#N) 0.25; (in CCCCCC) 0.37.

Molecule `c1csc(-c2ccc(-c3cccs3)s2)c1` registered a photoluminescence quantum yield (in CC#N) of 0.09 and a photoluminescence quantum yield (in ClCCl) of 0.05.

With `Cc1sc(Cl)cc1-c1nc(-c2ccc(Cl)cc2)[nH]c1-c1cc(Cl)sc1C`, the photoluminescence quantum yield (in CC#N) came out at 0.114.

As to `COc1ccc2nc3c(nc2c1)c(-c1ccccc1)nn3C`, the photoluminescence quantum yield is 0.22 (in C1CCCCC1), 0.34 (in C1CCOC1) and 0.35 (in CC#N).

As to `CN(c1ccccc1)c1ccc(-c2ccc(-c3ccc(N(C)c4ccccc4)cc3)c3nc(-c4ccccc4)c(-c4ccccc4)nc23)cc1`, for the setting “in ClC(Cl)Cl”, the photoluminescence quantum yield was 0.01.

On to `CC(C)(C)c1ccc2c3c(c4ccc(C(C)(C)C)cc4c2c1)=[N+]1C(=C(c2ccccc2)c2c(Br)c4c5ccc(C(C)(C)C)cc5c5cc(C(C)(C)C)ccc5c4n2[B-]1(F)F)C=3Br`, for which the photoluminescence quantum yield runs as follows: (in C1CCCCC1) 0.03; (in C1CCOC1) 0.02; (in CC#N) 0.02; (in Cc1ccccc1) 0.03; (in ClCCl) 0.03.

Molecule `COc1ccc2cc(/C=C/C3=C4CCc5ccccc5C4=[O+][B-](F)(F)O3)ccc2c1` returned a photoluminescence quantum yield (in ClCCl) of 0.33.

In turn, `CCCCCCCCC1(CCCCCCCC)c2cc(-c3ccc([Si](C)(C)C)cc3)ccc2-c2ccc(-c3ccc([Si](C)(C)C)cc3)cc21` gave a photoluminescence quantum yield (in ClC(Cl)Cl) of 0.89.

Molecule `c1cc2ccc3cc4[nH]c(-c5cc6c(cc7ccc8cccc9ccc6c7c89)[nH]5)cc4c4ccc(c1)c2c34` returned a photoluminescence quantum yield (in C1CCOC1) of 0.5.

Take `N#Cc1c(-n2c3ccccc3c3ccccc32)c(-n2c3ccccc3c3ccccc32)c(-n2c3ccccc3c3ccccc32)c(-n2c3ccc(-c4ccccc4)cc3c3cc(-c4ccccc4)ccc32)c1-n1c2ccccc2c2ccccc21`: the photoluminescence quantum yield (in Cc1ccccc1) was 0.85.

The values above are taken from the Deep4Chem optical property database.
